These results are taken from US11882828B2, “Mosquito vector control compositions, methods and products utilizing same” (priority 2015, dated 2024).

The subject of data set [1] is Anopheles stephensi. Briefly: Example B7: evaluation of insecticide impregnated polymer surfaces. Type of data set: in vivo. The conditions noted are these: AI content 2 wt %; for knock-down: after one hour; for mortality: 24 hours after exposure. An excerpt:
(§1) Preparation of polymeric sheets: Certain methoxyacrylate were Impregnated into three polymers: LDPE (low density polyethylene), HDPE (high density polyethylene) and PP (polypropylene) in different concentrations by mixing the respective polymer with a compound at high temperatures and the resultant polymeric material were then mould into thin discs or plaques.
(§2) Twenty four hours prior to the relevant assessment intervals, three to five day old non-blood fed adult mosquitoes were taken from the culture and lightly anaesthetised with carbon dioxide. Ten females were selected and placed in a 250 ml plastic cup, retained with a net lid, provided with a 10% sucrose solution soaked in a cotton wool bung and held under culturing environmental conditions.
(§3) After twenty four hours, impregnated polymer sheets (measuring about 150 mm in diameter and about 0.1 mm in thickness) were removed from storage and wrapped around the glazed side of an 11 cm ceramic tile and held in place with an elastic band. A cup of the pre-selected mosquitoes were again lightly anaesthetised with carbon dioxide and transferred from the holding cup to the base of a 9 cm plastic Petri dish. The relevant impregnated polymer sheet was placed over the Petri dish and held in place with an elastic band. Once the mosquitoes had recovered from the anaesthetic, ca. 1 minute, the impregnated polymer sheet was placed on a holding rack, such that treated side was at an angle of […] to the horizontal.
(§4) After one hour an assessment of mosquito knockdown was made. A mosquito was said to be knocked down if it was unable to right itself once it had fallen over. The mosquitoes were lightly anaesthetised again, and removed from the Petri dish exposure chamber and returned to the holding cups. The mosquitoes were supplied with a 10% sucrose solution soaked in a cotton wool bung and held under culturing environmental conditions. An assessment of mortality was made 24 hours after exposure. A mosquito was said to be dead if it is unable to right itself once it had fallen over.

Data set [2] has as its system Aedes aegypti. The description is as above. As to conditions: AI content 2 wt %; for knock-down: after one hour; for mortality: 24 hours after exposure. The format is in vivo.
Text: as §1, §2, §3, §4

The test system of data set [3] is Anopheles stephensi (Indian malaria mosquito). The data set can be described thus: whole plant or invertebrate. As to conditions: for pest or weed control at 20 ppm / mortality at 20 ppm: Anopheles stephensi; for pest or weed control at 20 ppm: 1 h, read-out: Knockdown; for mortality at 20 ppm: 48 h. How it is done:
[…] Once the deposits were dry, five non-blood fed adult female Anopheles stephensi (between two to five days old) were added to each well, and sustained with a 10% sucrose solution in a cotton wool plug. Assessment of the knockdown after 1 hour, and mortality after 48 hours was carried out.
(§5) In case of multiple tests, the mean value is reported.

In data set [4] the test system is Aedes aegypti (Yellow fever mosquito). The data set can be described thus: whole plant or invertebrate. As to conditions: for pest or weed control at 20 ppm / mortality at 20 ppm: Aedes aegypti; for pest or weed control at 20 ppm: 1 h, read-out: Knockdown; for mortality at 20 ppm: 48 h. The protocol:
[…] Once the deposits were dry, five non-blood fed adult female Aedes aegypti (between two to five days old) were added to each well, and sustained with a 10% sucrose solution in a cotton wool plug. Assessment of the knockdown after 1 hour, and mortality after 48 hours was carried out.
as §5

The subject of data set [5] is Anopheles stephensi. Briefly: whole plant or invertebrate. As to conditions: for mortality at 5 ppm: Anopheles stephensi, 48 h. How it is done: (§6) The individual wells of six (6) well tissue culture plates were treated with 250 μl of an ethanol solution containing a test compound at a defined concentration. Once the deposits were dry, ten non-blood fed adult female Aedes aegypti or Anopheles stephensi (each between two to five day old) were added to each well, and sustained with a 10% sucrose solution in a cotton wool plug.
(§7) Assessment of the mortality was carried out at 48 hours.
(§8) Each treatment was replicated twice, with the mean mortality recorded.

In data set [6] the test system is Aedes aegypti. The data set can be described thus: whole plant or invertebrate. The conditions noted are these: for mortality at 5 ppm: Aedes aegypti, 48 h. How it is done: as §6, §7, §8
The next data set deals with VK7. Briefly: Example B5: bottle based cross resistance study (CDC bottle assay). The format is in vivo. As to conditions: Anopheles coluzzii, 24 h, Table B5b, after 24 hours. The protocol: (§9) Based on the “CDC bottle assay” (described at http://www.cdc.gov/malaria/resources/pdf/fsp/ir_manual/ir_cdc_bioassay_en.pdf) 1 ml of ethanol containing a test compound at a defined concentration was added to a 250 ml glass bottle and the bottles were placed on a rolling table to coat the inner surfaces as the solvent evaporated. Once dry, twenty five non-blood fed adult female mosquitoes of the appropriate species and strains (each three day old) were aspirated from the stock culture and gently blown into the exposure bottles. The lid of the bottle was replaced and the bottle placed upright out of direct sun light under standard culture conditions, nominally 28C and 60-80% relative humidity.
(§10) A stopwatch was started, and the assessment of the knock-down were made after 15 minutes and 60 minutes. A mosquito was said to be knocked down if it was unable to stand, following the CDC definition. The bottles were replaced in an upright position when not being assessed.
(§11) After one hour the mosquitoes were carefully removed from the bottle with an aspirator and placed in a recovery cup. The mosquitoes were supplied with a 10% sucrose solution on a cotton wool bung, and stored under culture conditions. Assessments of the mortality were made after 24 hours.
(§12) Each treatment was replicated a minimum of four times, with the mean knockdown or mortality recorded. In each study, a set of bottles was infested with a known insecticide susceptible strain of mosquitoes from the same genera as the resistant strains.

The next data set has as its system An. Gambiae Kisumu sus. Described as above. As to conditions: Anopheles gambiae, 24 h, Table B5b; 25 ppm; after 24 hours; Kisumu sus. The format is in vivo. How it is done:
as §9, §10, §11, §12

In the next data set the test system is FUMOZ. Described as above. Type of data set: in vivo. As to conditions: Anopheles funestus, 24 h, Table B5b; 25 ppm; after 24 hours; FUMOZ. The protocol:
as §9, §10, §11, §12

The mark [7] stands for this setting: HDPE, polymer 8 to 12 weeks old.
Setting [8] is: LDPE, polymer 8 to 12 weeks old.

One may read the mortality as the percentage killed. A lower mortality goes with more survivors. On to `CO/C=C(/C(=O)OC)c1ccccc1Oc1ncnc(C(C)(C)C)n1` [Compound 5, Methyl (E)-2-[2-[(4-tert-butyl-1,3,5-triazin-2-yl)oxy]phenyl]-3-methoxy-prop-2-enoate], for which the knock-down amounted to 100% in the data set with Anopheles stephensi [1] (HDPE, polymer 2 to 4 weeks old); 50% in the data set with Anopheles stephensi [1] (setting [7]); 80% in the data set on Anopheles stephensi [1] (LDPE, polymer 2 to 4 weeks old); 70% in the data set on Anopheles stephensi [1] (setting [8]); 90% in the data set with Anopheles stephensi [1] (PP, polymer 2 to 4 weeks old); 20% with Anopheles stephensi [1] (PP, polymer 8 to 12 weeks old). Also, the knock-down with Aedes aegypti [2] (HDPE, polymer 2 to 4 weeks old) amounted to 33%; with Aedes aegypti [2] (HDPE, polymer 6 to 8 weeks old), 60%; with Aedes aegypti [2] (LDPE, polymer 2 to 4 weeks old), 13%; in the data set with Aedes aegypti [2] (LDPE, polymer 6 to 8 weeks old), 85%; in the data set on Aedes aegypti [2] (PP, polymer 2 to 4 weeks old), 80%; in the data set with Aedes aegypti [2] (PP, polymer 6 to 8 weeks old), 70%. In addition, the pest or weed control at 20 ppm in data set [3] and in [4] was 100% throughout. Further, the mortality at 20 ppm in data set [3] and in data set [4] was 100% in each case. Moreover, the values for the mortality at 5 ppm in the data set with Anopheles stephensi [5] and with Aedes aegypti [6] were 100% and 85%, respectively.
Consider `CO/C=C(/C(=O)OC)c1ccccc1Oc1cc(C(F)(F)F)ccn1` [Compound 8, Methyl (E)-2-[2-[[4-(trifluoromethyl)-2-pyridyl]oxy]phenyl]-3-methoxy-prop-2-enoate], for which the mortality in the data set with Anopheles stephensi [1] (HDPE, polymer 2 to 4 weeks old) is on record as 100%; with Anopheles stephensi [1] (setting [7]), 80%; in the data set on Anopheles stephensi [1] (LDPE, polymer 2 to 4 weeks old), 100%; with Anopheles stephensi [1] (setting [8]), 100%; in the data set on Aedes aegypti [2] (HDPE, polymer 2 to 4 weeks old) it was 53%; in the data set on Aedes aegypti [2] (HDPE, polymer 6 to 8 weeks old), 75%. Moreover, the mortality with Aedes aegypti [2] (LDPE, polymer 2 to 4 weeks old) turned out to be 100%; with Aedes aegypti [2] (LDPE, polymer 6 to 8 weeks old), 100%. The knock-down with Anopheles stephensi [1] (HDPE, polymer 2 to 4 weeks old) turned out to be 100%; in the data set with Anopheles stephensi [1] (setting [7]), 100%; in the data set on Anopheles stephensi [1] (LDPE, polymer 2 to 4 weeks old) it was 100%; in the data set on Anopheles stephensi [1] (setting [8]) it was 90%; in the data set on Aedes aegypti [2] (HDPE, polymer 2 to 4 weeks old), 100%; with Aedes aegypti [2] (HDPE, polymer 6 to 8 weeks old), 100%. The knock-down came out at 100% in the data set with Aedes aegypti [2] (LDPE, polymer 2 to 4 weeks old) and 100% with Aedes aegypti [2] (LDPE, polymer 6 to 8 weeks old). Moreover, the mortality at 25 ppm with VK7 stood at 20%; in the data set with An. Gambiae Kisumu sus it was 61%; in the data set with FUMOZ, 56%. In addition, the pest or weed control at 20 ppm is 100% in data set [3] and 67% in [4]. Further, the mortality at 20 ppm in [3] and in [4] was 100% each time. The mortality at 5 ppm in the data set on Anopheles stephensi [5] and with Aedes aegypti [6] was 100% in each case.
Turning to `CO/C=C(/C(=O)OC)c1ccccc1CO/N=C(\C)C(C)C` [Compound 12], the knock-down in the data set on Anopheles stephensi [1] (HDPE, polymer 2 to 4 weeks old) was determined as 100%; with Anopheles stephensi [1] (setting [7]) it was 100%; in the data set with Anopheles stephensi [1] (LDPE, polymer 2 to 4 weeks old), 100%; in the data set on Anopheles stephensi [1] (setting [8]) it was 30%; in the data set with Anopheles stephensi [1] (PP, polymer 2 to 4 weeks old), 100%; with Anopheles stephensi [1] (PP, polymer 8 to 12 weeks old) it was 100%. Further, the knock-down in the data set with Aedes aegypti [2] (HDPE, polymer 2 to 4 weeks old) is on record as 97%; with Aedes aegypti [2] (HDPE, polymer 6 to 8 weeks old), 100%; with Aedes aegypti [2] (LDPE, polymer 2 to 4 weeks old) it was 100%; in the data set with Aedes aegypti [2] (LDPE, polymer 6 to 8 weeks old) it was 95%; with Aedes aegypti [2] (PP, polymer 2 to 4 weeks old) it was 100%; in the data set with Aedes aegypti [2] (PP, polymer 6 to 8 weeks old) it was 100%. For the same compound, the pest or weed control at 20 ppm in data set [3] and in data set [4] was 100% each time. For the same compound, the mortality at 20 ppm in data set [3] and in [4] was 100% each time. The mortality at 5 ppm amounted to 100% with Anopheles stephensi [5] and 43% in the data set on Aedes aegypti [6].
The compound `CO/C=C(/C(=O)OC)c1ccccc1Oc1cc(C(F)(F)C(F)(F)F)ncn1` [Compound 17] returned a knock-down in the data set with Aedes aegypti [2] (LDPE, polymer 4 to 6 weeks old) of 100%. The pest or weed control at 20 ppm in data set [3] and in [4] was 100% in each case. In addition, the mortality at 20 ppm in data set [3] and in data set [4] was 100% in each case. The mortality at 5 ppm turned out to be 55% in the data set on Anopheles stephensi [5] and 5% with Aedes aegypti [6].
Turning to `CO/C=C(/C(=O)OC)c1ccccc1COc1nccnc1C(F)(F)F` [Compound 20, Methyl (E)-3-methoxy-2-[2-[[3-(trifluoromethyl)pyrazin-2-yl]oxymethyl]phenyl]prop-2-enoate], the pest or weed control at 20 ppm in data set [3] and in [4] was 100% throughout. In addition, the mortality at 20 ppm in [3] and in data set [4] was 100% in each case. In addition, the figures for the mortality at 5 ppm with Anopheles stephensi [5] and in the data set with Aedes aegypti [6] were 100% and 70%, respectively.
As for `CO/C=C(/C(=O)OC)c1ccccc1COc1ncc(C(F)(F)F)cc1C(F)(F)F` [Compound 21], the pest or weed control at 20 ppm was found to be 100% in [3] and 50% in data set [4]. Besides, the mortality at 20 ppm in data set [3] was 100%; in [4], 90%. Moreover, the mortality at 5 ppm in the data set on Anopheles stephensi [5] was 100%; in the data set on Aedes aegypti [6], 85%.
As for `CO/C=C(/C(=O)OC)c1ccccc1COc1nc(F)c(F)cc1F` [Compound 23], the values for the pest or weed control at 20 ppm in data set [3] and in data set [4] were 20% and 100%, respectively. Further, the mortality at 20 ppm in data set [3] and in data set [4] was 100% throughout. Further, the mortality at 5 ppm with Anopheles stephensi [5] is 93%; with Aedes aegypti [6] it was 60%.
For the compound `Clc1ccc(C(c2ccc(Cl)cc2)C(Cl)(Cl)Cl)cc1` [DDT, reference compound], the Knockdown in data set [3] (10 ppm, after 1 hour) amounted to 70%; in [4] (10 ppm, after 1 hour), 35%. For the same compound, the mortality in data set [3] (10 ppm, after 48 hours) is on record as 80%; in [4] (10 ppm, after 48 hours) it was 90%; in the data set on Anopheles stephensi [5] (5 ppm, at 48 hours) it was 59%; in the data set on Aedes aegypti [6] (5 ppm, at 48 hours), 85%.
Regarding `CO/C=C(/C(=O)OC)c1ccccc1COc1ncccc1Cl` [F, reference compound], the pest or weed control at 20 ppm worked out at 60% in [3] and 0% in data set [4]. In addition, the mortality at 20 ppm is 100% in data set [3] and 60% in data set [4]. The figures for the mortality at 5 ppm in the data set on Anopheles stephensi [5] and in the data set on Aedes aegypti [6] were 20% and 30%, respectively.
